Assay results from patent US11649215B2, “Compositions and methods for the treatment of oral infectious diseases” (Cellix Bio Private Limited, priority 2016, dated 2023).
In brackets after ≈: the same amount, converted by molar mass. Entries after “also recorded” stand apart in the source; their conditions may differ. Where two headings read alike, the source gives them in different places.

How the values were obtained:
[1] = system: various oral pathogenic microorganisms; conditions: cited from earlier work; for antimicrobial activity among the long-chain fatty acids: comparison among long-chain fatty acids
Candida Species = assay: MIC against the Candida Species; format: cell-based; conditions: conversion of 0.45 μmoles/ml, read-out: MIC (corresponding mass concentration)
Text: Linoleic acid is GRAS listed long chain fatty acid. […] The minimum inhibitory concentration for linoleic acid against Porphyromonas gingivalis was 9 to 78 mcg/ml.

Row | Structure (SMILES) | antimicrobial activity among the long-chain fatty acids [1] | antimicrobial activity against oral microorganisms ([1]; in vitro, incl. S. mutans, A. actinomycetemcomitans, C. albicans, P. gingivalis, F. nucleatum, S. gordonii) | bactericidal concentration ([1]; n-6 fatty acids GLA) | MIC (Candida Species) | bactericidal concentration [1]
1 | CCCCC/C=C\C/C=C\C/C=C\CCCCC(=O)O [GLA, gamma linoleic acid] | greatest antimicrobial activity | significant anti-microbial activity; also recorded: antimicrobial activities | 25 µg/mL | – | –
2 | CCCCC/C=C\C/C=C\CCCCCCCC(=O)O [Linoleic acid] | greatest antimicrobial activity | – | – | 0.13 µg/mL (≈ 0.464 µM) | 25 µg/mL
3 | CCCCC/C=C\C/C=C\C/C=C\C/C=C\CCCC(=O)O [arachidonic acid] | greatest antimicrobial activity | – | – | – | –
4 | CCCCCCCCCCCCCCCC(=O)O [palmitic acid] | greatest antimicrobial activity | – | – | – | –
5 | CCCCCC/C=C\CCCCCCCC(=O)O [palmitoleic acid] | greatest antimicrobial activity | – | – | – | –
